Measurements taken from article PMC7998855 (Toxins, 2021).
“And” between values parts separate entries of the source, which are not always exact repeats. Equal entries are not always repeated.

How the values were obtained:
[1] = test system: mucin 5AC; assay: Immunofluorescence staining of mucin 5AC; assay type: cell-based, human; settings: 24 h, 3 biological replicates; for mucin 5AC fluorescence intensity compared to the solvent control: mean ± SD, SD
[2] = test system: tight junction protein claudin-4 (CLD-4); assay: Immunofluorescence staining of claudin-4; assay type: cell-based, human; settings: 24 h, mean ± SD, 3 biological replicates, at least 9 optical fields
[3] = test system: differentiated Caco-2 (C2BBe1) cell monolayer; assay type: cell-based, human; settings: 24 h incubation with toxin (CER 1-100 ng/mL, DON 0.1-10 µg/mL), then 0.1 mg/mL LY apical in HBSS pH 7.4, 1 h, 37 °C, basolateral fluorescence, 3 biological replicates
[4] = test system: differentiated Caco-2 cells; assay: LC-MS/MS of CER in transwell compartments (uptake); assay type: in vitro ADME, human; settings: 24 h; for CER concentration in basolateral medium: apical application, mean ± SD, 3 biological replicates, SD
[5] = test system: differentiated C2BBe1 cells; assay type: cell-based, human; settings: for TEER, normalized to solvent control: SD
[6] = test system: mucin 5AC; settings: 2 µM DON, 48 h incubation; cited from earlier work
Method: In addition to the investigation of barrier integrity, interest in the influence of mycotoxins on the intestinal mucus layer recently emerged, whereby data is still scarce. […] In addition to the different incubation times a ...

[7] = test system: differentiated Caco-2 (C2BBe1) cells

| Compound | mucin 5AC fluorescence intensity compared to the solvent control ([1]; 10 ng/mL CER) [%] | mucin 5AC fluorescence intensity compared to the solvent control ([1]; 100 ng/mL CER) [%] | CLD-4 immunofluorescence intensity in comparison to the solvent control ([2]; 10 ng/mL CER) [%] | CLD-4 immunofluorescence intensity in comparison to the solvent control ([2]; 100 ng/mL CER) [%] | Effect on paracellular passage of Lucifer Yellow [3] | CER concentration in basolateral medium ([4]; 100 ng/mL CER with 10 µg/mL DON, transwell) [ng/mL medium] | CER concentration in basolateral medium ([4]; 100 ng/mL CER without DON, transwell) [ng/mL medium] | CER in cell lysates ([4]; 1-100 ng/mL CER with or without DON) | CER in the apical compartment ([4]; 1-100 ng/mL CER with or without DON, transwell) | TEER [5] | TEER, normalized to solvent control [5] | mucin 5AC in cell lysates of Caco-2 cells [6] | mucin 5AC fluorescence intensity vs solvent control ([1]; DON alone (1 and 10 µg/mL)) | CLD-4 immunofluorescence intensity in comparison to the solvent control ([2]; 10 µg/mL DON) [%] | DON concentration in cell lysates [7] | Detection of DON in apical medium, basolateral medium and cell lysates [7] |
| --- | --- | --- | --- | --- | --- | --- | --- | --- | --- | --- | --- | --- | --- | --- | --- | --- |
| cereulide | 80 ± 14 | 73 ± 20 | 173 ± 41 | 138 ± 49 | no significant effects | 0.07 ± 0.05 | 0.04 ± 0.02 | detected in the cell lysates of all samples | quantified in all treatment conditions | no impact | 193 ± 7% and 163 ± 34% | – | – | – | – | – |
| CC1=C[C@H]2O[C@@H]3[C@H](O)C[C@](C)([C@@]2(CO)[C@H](O)C1=O)[C@]31CO1 [DON, deoxynivalenol] | – | – | – | – | no significant effects | – | – | – | – | – | 116 ± 12% and 116 ± 6% | upregulation of mucin 5AC | no significant effect | 127 ± 38 | < LOD | detected in all compartments and incubation conditions, except the cell lysates treated with the lowest toxin concentration |
